One may read the IC50 as the concentration at which inhibition is half-maximal. A higher IC50 goes with lower potency. In general, inhibition refers to the percentage by which the read-out fell short of the control.

Active and inactive are the calls of the source. The rule behind the calls is not given here.

The text below walks through data of ChEMBL document CHEMBL1152913, “Discovery of 4-azaindoles as novel inhibitors of c-Met kinase” (Bioorg Med Chem Lett, 2009).

In series [1] the target is T1, Hepatocyte growth factor receptor (Homo sapiens, UniProt P08581).
Description: (§1) Inhibition of human recombinant His-tagged c-Met by TR-FRET assay
The subject of the next series is Hepatocyte. As to the kind of experiment: Clearance rate in hepatocytes. In kind it is ADME, cell-based, Liver.
For series [2], the target named is T1, Hepatocyte growth factor receptor. The experiment in a line: Inhibition of c-Met phosphorylation in human A549 cells after 1 hr. It is filed as cell-based.
Series [3] deals with RAC-alpha serine/threonine-protein kinase (Homo sapiens) (UniProt P31749). The experiment in a line: Inhibition of AKT phosphorylation in human MKN45 cells after 1 hr by Western blot analysis. It is filed as cell-based. Conditions: MKN-45. (A western blot detects proteins with antibodies after separation by electrophoresis.)
Series [4] deals with Mitogen-activated protein kinase 3 (Homo sapiens) (UniProt P27361). As to the kind of experiment: Inhibition of ERK1 phosphorylation in human MKN45 cells after 1 hr by Western blot analysis. Conditions: MKN-45. In kind it is cell-based.
Series [5] concerns the target Mitogen-activated protein kinase 1 (Homo sapiens) (UniProt P28482). As to the kind of experiment: Inhibition of ERK2 phosphorylation in human MKN45 cells after 1 hr by Western blot analysis. As to conditions: MKN-45. In kind it is cell-based.
The target of series [6] is RAC-alpha serine/threonine-protein kinase (Homo sapiens) (UniProt P31749). As to the kind of experiment: Inhibition of AKT assessed as residual activity at 20 uM.
The target in series [7] is Mitogen-activated protein kinase 3 (Homo sapiens) (UniProt P27361). The experiment in a line: Inhibition of ERK1 assessed as residual activity at 20 uM.
The target in series [8] is Vascular endothelial growth factor receptor 2 (Homo sapiens) (UniProt P35968). As to the kind of experiment: Inhibition of KDR assessed as residual activity at 20 uM.
In series [9] the target is T2, Tyrosine-protein kinase Mer (Homo sapiens) (UniProt Q12866).
T2 sequence (whole entry): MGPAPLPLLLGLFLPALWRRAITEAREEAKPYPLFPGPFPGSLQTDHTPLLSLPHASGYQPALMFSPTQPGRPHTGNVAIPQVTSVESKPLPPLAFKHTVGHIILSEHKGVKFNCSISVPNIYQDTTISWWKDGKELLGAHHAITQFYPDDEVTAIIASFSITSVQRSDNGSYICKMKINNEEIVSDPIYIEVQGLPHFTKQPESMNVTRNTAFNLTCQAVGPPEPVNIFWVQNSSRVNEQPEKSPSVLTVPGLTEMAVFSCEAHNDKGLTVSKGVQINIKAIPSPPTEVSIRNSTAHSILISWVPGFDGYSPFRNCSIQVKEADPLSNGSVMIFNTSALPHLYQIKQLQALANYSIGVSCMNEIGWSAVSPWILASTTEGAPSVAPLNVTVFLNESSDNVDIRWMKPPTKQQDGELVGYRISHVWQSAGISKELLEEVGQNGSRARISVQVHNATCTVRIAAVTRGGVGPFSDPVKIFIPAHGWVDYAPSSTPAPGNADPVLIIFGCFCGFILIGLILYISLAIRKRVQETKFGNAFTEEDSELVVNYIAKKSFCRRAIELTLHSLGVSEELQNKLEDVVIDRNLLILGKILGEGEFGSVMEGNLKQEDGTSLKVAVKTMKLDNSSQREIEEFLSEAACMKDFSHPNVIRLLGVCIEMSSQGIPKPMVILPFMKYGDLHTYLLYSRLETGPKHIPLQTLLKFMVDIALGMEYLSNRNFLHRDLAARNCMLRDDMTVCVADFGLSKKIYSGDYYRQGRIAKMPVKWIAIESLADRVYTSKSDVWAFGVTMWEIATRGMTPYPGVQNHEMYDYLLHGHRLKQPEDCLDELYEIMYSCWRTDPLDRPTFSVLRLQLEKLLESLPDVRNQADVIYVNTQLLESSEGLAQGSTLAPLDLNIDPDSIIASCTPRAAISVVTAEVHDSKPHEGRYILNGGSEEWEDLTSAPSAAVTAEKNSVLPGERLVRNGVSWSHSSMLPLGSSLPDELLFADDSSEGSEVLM
The experiment in a line: Inhibition of Mer assessed as residual activity at 20 uM.

The target of series [10] is High affinity nerve growth factor receptor (Homo sapiens) (UniProt P04629). As to the kind of experiment: Inhibition of TrkA assessed as residual activity at 20 uM.
For series [11], the target named is Macrophage-stimulating protein receptor (Homo sapiens) (UniProt Q04912). As to the kind of experiment: Inhibition of Ron assessed as residual activity at 20 uM.
Series [12] concerns the target Mitogen-activated protein kinase 1 (Homo sapiens) (UniProt P28482). The experiment in a line: Inhibition of ERK2 assessed as residual activity at 20 uM.
Series [13] concerns the target T1, Hepatocyte growth factor receptor. The experiment in a line: Inhibition of c-Met phosphorylation in human MKN45 cells after 1 hr. In kind it is cell-based, MKN-45.
For series [14] the target is unchanged. This is another data set of the same source.
Description: as §1
Series [15] shares this target. The experiment in a line: Inhibition of human recombinant His-tagged c-Met at 20 uM by TR-FRET assay. In general terms: TR-FRET usually uses a lanthanide donor and a delayed reading to cut background.

Regarding `c1ccc(Cn2ccc3ncccc32)cc1`, in series [1], the IC50 entry was “Inactive”.

`O=S(=O)(c1c(Cl)nc2sccn12)n1ccc2ncc(N3CCNCC3)cc21` displayed a CL in the series on Hepatocyte of 1 s⁻¹.

With `O=S(=O)(c1cccc2nonc12)n1ccc2ncc(-c3cnn(C4CCNCC4)c3)cc21`, the IC50 amounted to 130 nM in series [2], 200 nM in [13] and 9 nM in series [14]. Further, the inhibition entry in [3], in series [4] and in [5] was “Active” throughout. Further, the Activity stood at 88% in series [6]; 88% in series [7]; 3% in series [8]; 19% in [9]; 18% in series [10]; 29% in series [11]. Besides, the inhibition result in series [12] was “inactive”.

As to `O=[N+]([O-])c1ccc(S(=O)(=O)n2ccc3ncccc32)cc1`, the inhibition in series [15] turned out to be 16%.

On to `O=S(=O)(c1c(Cl)nc2sccn12)n1ccc2ncc(-c3cnn(C4CCNCC4)c3)cc21`, for which the CL in the series with Hepatocyte is 0.3 s⁻¹.
